Reference: patent publication US11465994B2, “MGluR7 agonist compounds for treating mGluR7-regulated diseases, disorders, or conditions” (Takeda Pharmaceutical Company Limited, priority 2016, dated 2022)
Like-named read-outs stand apart in the source and are kept apart here.

Assays:
Assay type in all cases: cell-based
mGluR7 [1] = molecular target: T1, mGluR7 (Homo sapiens, UniProt Q14831); test: Kinetic impedance assay (desensitization) in stable CHO-mGluR7 cells, response to tool activator CPD A after pre-treatment; settings: FIG. 1B
T1 sequence (Q14831 35-915): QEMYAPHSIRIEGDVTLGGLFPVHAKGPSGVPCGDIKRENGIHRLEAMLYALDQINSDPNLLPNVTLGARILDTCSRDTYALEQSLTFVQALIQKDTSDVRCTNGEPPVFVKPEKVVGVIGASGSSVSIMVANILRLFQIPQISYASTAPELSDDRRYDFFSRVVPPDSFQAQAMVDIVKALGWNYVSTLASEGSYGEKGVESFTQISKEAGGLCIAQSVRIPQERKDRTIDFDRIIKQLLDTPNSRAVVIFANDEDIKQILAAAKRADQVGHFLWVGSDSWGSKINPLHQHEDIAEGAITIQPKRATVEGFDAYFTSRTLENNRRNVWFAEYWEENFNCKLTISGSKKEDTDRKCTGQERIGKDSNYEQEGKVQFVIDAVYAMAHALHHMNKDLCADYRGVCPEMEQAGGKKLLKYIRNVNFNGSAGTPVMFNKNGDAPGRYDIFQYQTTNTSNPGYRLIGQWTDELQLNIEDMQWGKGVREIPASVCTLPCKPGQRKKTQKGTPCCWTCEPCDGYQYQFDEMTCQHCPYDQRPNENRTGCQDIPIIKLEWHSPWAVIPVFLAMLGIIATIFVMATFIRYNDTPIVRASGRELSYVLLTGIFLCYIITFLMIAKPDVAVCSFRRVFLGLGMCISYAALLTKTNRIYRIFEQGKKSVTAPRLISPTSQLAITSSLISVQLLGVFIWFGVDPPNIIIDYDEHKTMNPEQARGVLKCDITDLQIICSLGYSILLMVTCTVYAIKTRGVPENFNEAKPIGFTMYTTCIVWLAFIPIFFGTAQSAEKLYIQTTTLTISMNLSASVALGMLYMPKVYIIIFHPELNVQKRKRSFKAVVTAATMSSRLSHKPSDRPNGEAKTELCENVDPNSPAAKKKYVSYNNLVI
Experimental: Stable CHO-mGluR7 cells (DiscoverX) were pre-incubated with compounds (EC80, 1 h), washed and after 30 min, impedance changes upon addition of a tool mGluR7 activator (CPD A) were determined (Cellkey, Molecular Devices).

mGluR7 [2] = molecular target: T1, mGluR7; test: Mode of action: cAMP assay in CHO-CRE-luc human mGluR7 cells in presence of orthosteric antagonist LY341495; design: expressed in transfected cells; settings: FIG. 2C, 2D
Experimental: FIGS. 2A-2D are graphs of the results from in vitro cAMP assays in CHO-CRE-luc cells stably expressing human mGluR7 to determine the mode of action of CPD1. FIG. 2A provides the compound activity of non-selective agonist, L-AP4, with increasing concentrations of orthosteric antagonist, LY341495 (LY). FIG. 2B provides the compound activity of a positive allosteric modulator (PAM) compound, VU0422288, for the same concentrations of LY as shown in FIG. 2A.
(§1) Compound activities were determined in CHO-CRE-luc cells stably expressing hu/mo mGluR7, using a cAMP reporter gene assay (Steady Glo, Promega). Selectivity was assessed in stable CHO-mGluR4 cells (DiscoverX) and CHO-mGluR8 transients using an HTRF cAMP assay (Cisbio).
The mode of action of the compound in Example 16 was determined by testing activity in the presence of the orthosteric antagonist LY341495 (LY).

[3] = tested on: mouse cortical synaptosomes; test: Glutamate release assay in mouse cortical synaptosomes
Experimental: Stimulus induced glutamate release from mouse cortical synaptosomes was monitored using a fluorescence based glutamate dehydrogenase assay. Compounds were incubated for 1 or 10 min for the inhibition or potentiation modes respectively.

[4] = tested on: CA1 pyramidal cells in mouse hippocampal slices (SC-CA1 pathway); test: Electrophysiology: intracellular EPSC recordings from CA1 pyramidal cells in mouse hippocampal slices
Experimental: FIG. 3A is a graph showing the results of a glutamate release assay for CPD1 in mouse synaptosomes. FIG. 3B is a graph showing the results of a glutamate release potentiation assay. FIG. 3C and FIG. 3D provide graphs of electrophysiological recordings from the SC-CA1 pathway in mouse hippocampal slices. FIG. 3C is a graph comparing the changes in intracellular recordings of excitatory postsynaptic currents (EPSCs) as a result of contact with L-AP4 at a concentration of 0.5 mM, CPD 1 at a concentration of 1 μM, and CPD 1 at a concentration of 5 μM. FIG. 3D is a graph comparing the changes in intracellular recordings of EPSCs in mice with wild-type (WT) mGluR7 and mice with an mGluR7 knock-out contacted with CPD 1 at a concentration of 5 μM.
Intracellular recordings were made from CA1 pyramidal cells following SC stimulation in mouse hippocampal slices. Compounds were applied to the slices for 10 min, with recordings made over a 45 minutes period. mGluR7 KO mice were obtained from the Toronto Centre for Phenogenomics.

mGluR7 [5] = molecular target: T1, mGluR7; test: cAMP CRE-luciferase reporter gene assay (Steady Glo) in CHO-CRE-luc cells stably expressing human mGluR7; design: expressed in transfected cells
Experimental: as §1
The ability of the test compounds to activate mGluR7 was determined by their ability to reduce forskolin stimulated cAMP production. Compounds were assessed in a CRE-directed luciferase reporter gene assay, using a stable CHO cell line expressing the CRE-luc reporter and human mGluR7 genes. In this cell line, production of cAMP stimulated the transcription of the luciferase gene and luciferase activity was then measured in a luminescent enzyme assay (Steady Glo assay; Promega E2550). Activation of mGluR7 decreased the forskolin stimulated luminescence signal.
The day prior to the assay, compounds were serially diluted in DMSO (100× final assay concentration (FAC)), in 384-well plates which were then stored in the dark at room temperature (RT) until use. Cells were seeded at 12.5 k/well in white, clear bottom 384-well plates (Corning 3707) and left for one hour at RT followed by an overnight incubation (37° C.). The following day, the DMSO compound plate was diluted 1:20 (5×FAC) in Opti-MEM I (Life Technologies 11058021). The growth media was removed from the cell plate and replaced with 15 μl Opti-MEM I, followed by a 5 μl addition from the 5× compound plate and a fifteen minute incubation (37° C.). Forskolin (Sigma F3917) was then added to the wells (5 μl of 2.5 μM) and the plate was incubated for five hours (37° C.). During this incubation, the Steady Glo Substrate reagent was warmed to 37° C. Aliquots (11 ml; stored at −20° C.) of this reagent were prepared by dissolving the contents of 1 vial of lyophilised substrate in 100 ml Steady-Glo buffer. A 25 μl addition of the substrate was made to all wells and the plate was incubated for thirty minutes at RT, on a plate shaker (300 rpm; in the dark). Luminescence was then measured using the EnVision Multilabel Reader (Perkin Elmer).
Compound activity was examined using a 10-point, half log concentration-response range and each concentration was tested in duplicate wells. Luminescence values were normalised to ‘maximum’ (forskolin alone) and ‘minimum’ (forskolin in the presence of tool mGluR7 agonist) controls.

mGluR4 = mGluR4 (Homo sapiens, UniProt Q14833); test: Selectivity HTRF cAMP assay in stable CHO-mGluR4 cells
Sequence of mGluR4 (Q14833 33-912): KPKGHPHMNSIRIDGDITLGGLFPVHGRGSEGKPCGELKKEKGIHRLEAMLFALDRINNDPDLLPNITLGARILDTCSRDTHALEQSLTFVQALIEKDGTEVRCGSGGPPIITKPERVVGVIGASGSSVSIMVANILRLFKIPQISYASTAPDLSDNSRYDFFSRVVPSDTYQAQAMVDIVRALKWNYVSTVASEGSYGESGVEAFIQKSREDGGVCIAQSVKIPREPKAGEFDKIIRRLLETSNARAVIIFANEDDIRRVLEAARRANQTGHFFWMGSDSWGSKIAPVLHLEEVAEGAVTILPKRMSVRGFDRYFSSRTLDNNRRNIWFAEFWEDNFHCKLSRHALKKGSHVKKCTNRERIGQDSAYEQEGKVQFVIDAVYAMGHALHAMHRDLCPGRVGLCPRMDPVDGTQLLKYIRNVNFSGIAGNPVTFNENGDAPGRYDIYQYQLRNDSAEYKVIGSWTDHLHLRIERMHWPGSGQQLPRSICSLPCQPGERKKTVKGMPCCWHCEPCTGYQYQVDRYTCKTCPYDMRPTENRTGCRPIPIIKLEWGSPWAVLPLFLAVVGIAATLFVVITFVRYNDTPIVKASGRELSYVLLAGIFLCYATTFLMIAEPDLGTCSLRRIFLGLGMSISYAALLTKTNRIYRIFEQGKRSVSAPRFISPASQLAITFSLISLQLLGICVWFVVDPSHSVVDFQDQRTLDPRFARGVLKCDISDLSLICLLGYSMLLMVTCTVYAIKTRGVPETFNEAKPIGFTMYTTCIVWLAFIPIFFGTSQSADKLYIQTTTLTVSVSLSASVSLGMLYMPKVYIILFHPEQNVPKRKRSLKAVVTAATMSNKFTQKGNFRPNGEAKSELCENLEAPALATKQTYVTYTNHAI
Experimental: as §1
(§2) The activation of mGluR7 was measured by the decreased forskolin stimulated luminescence signal. […] Forskolin stimulated luminescence signal was not reduced for mGluR4 and mGluR8.

mouse mGluR7 = molecular target: T2, mouse mGluR7 (Mus musculus, UniProt Q68ED2); test: cAMP reporter gene assay in CHO-CRE-luc cells stably expressing mouse mGluR7
T2 construct: expressed in transfected cells
T2 sequence (Q68ED2 35-915): as the sequence (Q14831 35-915) above, with S454T, A486P, D544N counted along it
Experimental: as §1, §2

mGluR8 = molecular target: T3, mGluR8 (Homo sapiens, UniProt O00222); test: Selectivity HTRF cAMP assay in CHO-mGluR8 transients
T3 construct: expressed in transfected cells; host or cells: CHO (transient transfection)
T3 sequence (O00222 34-908, species assumed): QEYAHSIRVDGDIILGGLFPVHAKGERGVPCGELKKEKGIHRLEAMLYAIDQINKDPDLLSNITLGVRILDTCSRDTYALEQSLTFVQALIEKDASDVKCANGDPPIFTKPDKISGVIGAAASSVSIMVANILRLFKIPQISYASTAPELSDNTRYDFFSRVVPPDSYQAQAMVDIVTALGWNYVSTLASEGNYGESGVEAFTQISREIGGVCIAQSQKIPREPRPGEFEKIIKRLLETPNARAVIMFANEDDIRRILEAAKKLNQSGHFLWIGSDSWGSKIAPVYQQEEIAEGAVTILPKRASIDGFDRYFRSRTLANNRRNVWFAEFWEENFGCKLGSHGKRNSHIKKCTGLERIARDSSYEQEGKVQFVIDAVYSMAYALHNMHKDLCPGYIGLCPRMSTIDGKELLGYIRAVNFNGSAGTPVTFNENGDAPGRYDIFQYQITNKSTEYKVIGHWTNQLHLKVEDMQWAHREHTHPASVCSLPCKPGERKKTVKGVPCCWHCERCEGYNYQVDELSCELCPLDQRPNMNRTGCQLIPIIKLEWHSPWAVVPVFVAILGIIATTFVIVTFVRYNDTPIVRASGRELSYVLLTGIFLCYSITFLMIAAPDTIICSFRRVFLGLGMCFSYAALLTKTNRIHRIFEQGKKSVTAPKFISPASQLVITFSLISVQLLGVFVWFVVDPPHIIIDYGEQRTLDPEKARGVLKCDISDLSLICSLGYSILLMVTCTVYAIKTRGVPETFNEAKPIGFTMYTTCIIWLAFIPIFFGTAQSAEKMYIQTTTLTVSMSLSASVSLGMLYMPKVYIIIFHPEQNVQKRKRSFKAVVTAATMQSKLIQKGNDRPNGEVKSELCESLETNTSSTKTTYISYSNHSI
Experimental: as §1, §2

[6] = reduction of forskolin stimulated cAMP (luminescence), CHO CRE-luc human mGluR7, read-out: EC50

Row | SMILES | EC50 (mGluR7 [5]; [6]) | further results
1 | C[C@H](C(=O)NC1COc2ccccc2C1S(C)(=O)=O)c1ccc(F)cc1 (single isomer, unassigned) [Example 16] | 7 nM | effect of pre-treatment on response to CPD A (in words) (mGluR7 [1]; pre-treatment): did not alter; effect of increasing LY341495 concentrations on compound activity (in words) (mGluR7 [2]): unaffected; EC50 ([3]; Mus musculus, 1 min, short incubation (1 minute), FIG. 3A, read-out: EC50 of reduction of glutamate release): 34 nM; enhancement of glutamate release ([3]; longer exposure (10 minutes), FIG. 3B): 92%; reduction of glutamate release ([3]; short incubation (1 minute), FIG. 3A): 30%; activity on EPSCs in slices from mGluR7 KO mice (in words) ([4]; mGluR7 KO mice, 5 μM, FIG. 3D): inactive; effect on excitatory postsynaptic currents (EPSCs) amplitude (in words) ([4]; wild-type mouse hippocampal slices, FIG. 3C): bimodal effect; agonist activity at mGluR7, human samples (in words) (mGluR7 [5]; FIG. 1A): full agonist; Emax mGluR7 (human) (mGluR7 [5]; mean ± standard deviation, n=2): 100 ± 1.8 % control; EC50 (mGluR7 [5]; mean ± standard deviation, n=2, read-out: EC50 mGluR7 (human)): 6.9 ± 0.8 nM; activity at mGluR4 (in words) (mGluR4; FIG. 1A): no activity; EC50 mGluR4 (mGluR4; tested ≤10 μM): inactive; Emax mGluR4 (mGluR4; tested ≤10 μM): inactive; agonist activity at mGluR7, mouse samples (in words) (mouse mGluR7; FIG. 1A): full agonist; EC50 (mouse mGluR7; mean ± standard deviation, n=2): 1.8 ± 3.5 nM; Emax mGluR7 (mouse) (mouse mGluR7; mean ± standard deviation, n=2): 100 ± 0.1 % control; activity at mGluR8 (in words) (mGluR8; FIG. 1A): no activity; EC50 mGluR8 (mGluR8; tested ≤10 μM): inactive; Emax mGluR8 (mGluR8; tested ≤10 μM): inactive
2 | C[C@H](C(=O)NC1COc2ccccc2C1S(C)(=O)=O)c1ccc(F)cc1 (single isomer, unassigned) [Example 17] | 28 nM | 
3 | COC1c2ccccc2OCC1NC(=O)[C@@H]1c2ccccc2CC(=O)N1CC1CC1 (single isomer, unassigned) [Example 18] | 15 nM | 
4 | COC1c2ccccc2OCC1NC(=O)[C@@H]1c2ccccc2CC(=O)N1CC1CC1 (single isomer, unassigned) [Example 19] | 6 nM | 
5 | C[C@H](C(=O)NC1COc2ccccc2C1S(C)(=O)=O)c1ccc(Cl)cc1 (single isomer, unassigned) [Example 20] | 10 nM | 
6 | C[C@H](C(=O)NC1COc2ccccc2C1S(C)(=O)=O)c1ccc(Cl)cc1 (single isomer, unassigned) [Example 21] | 33 nM | 
7 | CNC1c2ccccc2OCC1NC(=O)[C@@H](C)c1ccc(F)cc1 (single isomer, unassigned) [Example 22] | 69 nM | 
8 | CNC1c2ccccc2OCC1NC(=O)[C@@H](C)c1ccc(F)cc1 (single isomer, unassigned) [Example 23] | 110 nM | 
9 | COC1c2ccccc2OCC1NC(=O)[C@@H]1c2ccccc2CC(=O)N1CCCF (single isomer, unassigned) [Example 26] | 23 nM | 
10 | COC1c2ccccc2OCC1NC(=O)[C@@H]1c2ccccc2CC(=O)N1CCCF (single isomer, unassigned) [Example 27] | 22 nM | 
11 | CNC(=O)c1ccccc1C(=O)NC1c2ccccc2OCC1NC(=O)[C@@H](C)c1ccc(F)cc1 (single isomer, unassigned) [Example 33] | 700 nM | 
12 | CNC(=O)c1ccccc1C(=O)NC1c2ccccc2OCC1NC(=O)[C@@H](C)c1ccc(F)cc1 (single isomer, unassigned) [Example 34] | 97 nM | 
13 | C[C@H](C(=O)NC1COc2ccccc2C1N1CCCC1)c1ccc(F)cc1 (single isomer, unassigned) [Example 35] | 62 nM | 
14 | C[C@H](C(=O)NC1COc2ccccc2C1N1CCC1)c1ccc(F)cc1 (single isomer, unassigned) [Example 36] | 33 nM | 
15 | C[C@H](C(=O)NC1COc2ccccc2C1N(C)C)c1ccc(F)cc1 (single isomer, unassigned) [Example 37] | 55 nM | 
16 | C[C@H](C(=O)NC1COc2ccccc2C1N1CCC(F)(F)C1)c1ccc(F)cc1 (single isomer, unassigned) [Example 38] | 30 nM | 
17 | C[C@H](C(=O)NC1COc2ccccc2C1N1CCOCC1)c1ccc(F)cc1 (single isomer, unassigned) [Example 39] | 23 nM | 
18 | C[C@H](C(=O)NC1COc2ccc(F)cc2C1O)c1ccccc1 (stereo in doubt) [Example 3, (2S)—N-((cis)-6-fluoro-4-hydroxy-3,4-dihydro-2H-1-benzopyran-3-yl)-2-phenylpropanamide] | 1200 nM | 
19 | CNC1c2ccccc2OCC1NC(=O)[C@@H](C)c1ccccc1 (stereo in doubt) [Example 14, (2S)—N-[(trans)-4-(methylamino)-3,4-dihydro-2H-1-benzopyran-3-yl]-2-phenylpropanamide] | 65 nM | 
20 | COC1c2ccccc2OCC1NC(=O)[C@@H]1c2ccccc2CC(=O)N1CC1CC1 (stereo in doubt) [Example 15, (1S)-2-(cyclopropylmethyl)-N-((trans)-4-methoxy-3,4-dihydro-2H-1-benzopyran-3-yl)-3-oxo-1,2,3,4-tetrahydroisoquinoline-1-carboxamide] | 14 nM | 
21 | Cl.Cl.c1ccc(C(NCCNC(c2ccccc2)c2ccccc2)c2ccccc2)cc1 [AMN082, N,N′-dibenzhydrylethane-1,2-diamine dihydrochloride] |  | EC50 of subsequent response to CPD A increased (mGluR7 [1]; pre-treatment 1 hour (EC80)): 5 fold; Emax (mGluR7 [1]; pre-treatment 1 hour (EC80), read-out: Emax of subsequent response to CPD A reduced by): 75%
22 | C[C@H](C(=O)NC1COc2ccccc2C1=O)c1ccccc1 (stereo partly drawn) [Example 4, (2S)—N-(4-oxo-3,4-dihydro-2H-1-benzopyran-3-yl)-2-phenylpropanamide] | 860 nM | 
